# US6822146B2, “Sulfonylurea-tolerant sunflower line M7” (priority 2000, dated 2004)
# Where a name gives a salt, the structure may show the parent alone. Read-outs that look alike come from different tables or passages of the source.
# What was measured:
# [1] = test system: Homozygous resistant inbred lines, BC3-M4M12 (I), BC3-M4M11 (J) and BC3-M4M7 (K); test: Test A summary, homozygous resistant inbred lines; conditions: Test A application rates; for tolerance of homozygous resistant inbred lines I, J, K: triflusulfuron-methyl at 20 g a.i./ha
# Method: In a small field trial, the sunflower varieties described in Table 4 were sprayed post-emergence with a variety of sulfonylurea herbicide treatments.
# Broadcast post-emergence applications of formulated sulfonylurea herbicides were performed at the 6-leaf development stage using four randomly distributed replications. Application rates were chosen to match the usual use rates of these herbicides in the crops they are registered in Europe. All herbicides except for metsulfuron-methyl were sprayed in combination with Citowet® non-ionic ethoxylated alcohol at 0.25% volume of formulated product per volume of water applied per hectare.
# The evaluation of the maximum (i.e. peak) injury to sunflower varieties by sulfonylurea herbicides was measured by visual ratings, which are listed in Table 5. A rating of 0% phytotoxicity means no crop injury. […] A rating of 100% means the complete destruction of all plants.
# BC3-M4M7 = test: Test A field trial, phytotoxicity, variety K; assay type: in vivo, sunflower; conditions: variety K
# Description: (§1) To generate the hybrids C, D and E, the fourth generation self-pollinated maintainer mutant lines M4M12, M4M11 and M4M7 were chemically sterilized by applying at the bud “star” flower stage a small amount of gibberellic acid solution to sterilize the pollen according to the general method described in Sunflower Science Technology, J. F. Carter ed. (Number 19 in the series “Agronomy”) pp. 339-386. This treatment enables maintainer plants to behave as CMS inbred lines and allows the production of heterozygous resistant hybrids, with the herbicide resistant source coming from the female side. Such crosses allowed evaluating the sexual effect of the mutation source when introduced on the female side of a cross as described in crosses C, D and E versus the male side of a cross as described in crosses F, G and H. Labels I, J and K identify third generation CMS mutant lines crossed with fourth generation maintainer lines to maintain the highly heritable mutant trait in a male sterile homozygous resistant environment. One skilled in sunflower breeding art understands the meaning of such crosses.
# (§2) A rating of 0% phytotoxicity means no crop injury.
# BC3-M4M12 = test: Test A field trial, phytotoxicity, variety I; assay type: in vivo, sunflower; conditions: variety I
# Description: as §1, §2
# BC4-M5M12 × PHA155 = test: Test C field phytotoxicity, BC4-M5M12 × PHA155; assay type: in vivo, sunflower
# Description: as §2
# [2] = test system: Inbred line control: H89A; assay type: in vivo, sunflower; conditions: variety B
# Description: as §1, §2
# [3] = test system: Hybrid control: H89A × RHA274; assay type: in vivo, sunflower; conditions: variety A
# Description: as §1, §2
# H89A × M4M7 = assay type: in vivo, sunflower; conditions: variety H
# Description: as §1, §2
# H89A × M4M12 = assay type: in vivo, sunflower; conditions: variety F
# Description: as §1, §2
# H89A × M4M11 = assay type: in vivo, sunflower; conditions: variety G
# Description: as §1, §2
# BC4-M5M7 × PHA155 = test: Test C field phytotoxicity, BC4-M5M7 × PHA155; assay type: in vivo, sunflower
# Description: as §2
# GA-M4M12 × RHA274 = test: Test A field trial, phytotoxicity, variety C; assay type: in vivo, sunflower; conditions: variety C
# Description: as §1, §2
# BC3-M4M11 = test: Test A field trial, phytotoxicity, variety J; assay type: in vivo, sunflower; conditions: variety J
# Description: as §1, §2
# GA-M4M11 × RHA274 = test: Test A field trial, phytotoxicity, variety D; assay type: in vivo, sunflower; conditions: variety D
# Description: as §1, §2
# GA-M4M7 × RHA274 = test: Test A field trial, phytotoxicity, variety E; assay type: in vivo, sunflower; conditions: variety E
# Description: as §1, §2
# M5M7 = test: Test B greenhouse phytotoxicity, M5M7; assay type: in vivo, sunflower; conditions: in vivo
# Method: (§3) A greenhouse experiment was conducted to evaluate the spectrum of tolerance of three homozygous resistant mutants to various herbicides inhibiting acetolactate synthase (ALS) as their mode of action. The inbred lines tested were the 5th generation self-pollinated maintainers, M5M7, M5M11 and M5M12, as well as the 4th generation male sterile back-crosses BC4-M5M7, BC4-M5M11 and BC4-M5M12. Treatments of formulated herbicides were applied post-emergence at the 4-leaf stage. Application rates of the test herbicides were chosen to coincide with the rates commonly used in the crops for which they are registered. The application rate of imazethapyr was chosen to match the rate recommended to control parasitic weeds in sunflowers by L. García-Torres et al., Weed Technology 1995, 9, 819-824. Wild type H89 inbred sunflower was not included in this test, because the many of the tested herbicides are known to be efficacious in controlling volunteer sunflower as a weed. Treatments were replicated twice. […] A rating of 0% phytotoxicity means no crop injury.
# [4] = test system: BC4-M5M12 × PHA155 hybrid; test: Test E injury to sunflower hybrid; assay type: in vivo; conditions: in vivo
# Method: (§4) Based on the results from Test D, a modified protocol was developed to include three timings of post-emergence treatment. The hybrid BC4-M5M12 (female parent)×PHA155 restorer line (male parent) described in Test C was used in this test. Various herbicide programs were tested using three replications. […] Seed coatings of these formulated herbicides were applied to 6 kg of seeds in such amount that considering the distribution of the coated seeds in each pot, the herbicide active ingredient (a.i.) application rates per hectare were as indicated.
# (§5) The treatments were applied similar to the methods described for Test D. Pre-emergence applications were broadcast only, not soil incorporated. For pre-emergence application, the pots were sprayed using the high rates of the herbicides two days after sowing the sunflower seeds. Post-emergence treatments were applied at the 4-6 leaf stage of sunflower (corresponding to early stage of Orobanche attachment; identified as “T1”), the 6-8 leaf stage of sunflower (corresponding to the mid stage of Orobanche attachment; nodules <5 mm diameter; identified as “T2”) and 8-12 leaf stage of sunflower (corresponding to late stage of Orobanche attachment; identified as “T3”). The mid-stage applications included the high as well as low application rates of each herbicide.
# (§6) For comparison were also included in this test other acetolactate synthase-inhibiting herbicides reported in the literature as giving good weed control of Orobanche (L. García-Torres et al., Weed Research 1994, 34, 395-402; L. García-Torres et al., Weed Technology 1995, 9, 819-824; J. Hershenhorn et al., Weed Technology 1998, 12, 108-114).
# M5M12 = test: Test B greenhouse phytotoxicity, M5M12; assay type: in vivo, sunflower; conditions: in vivo
# Method: as §3
# M5M11 = test: Test B greenhouse phytotoxicity, M5M11; assay type: in vivo, sunflower; conditions: in vivo
# Method: as §3
# Orobanche cumana = test: Test E control of Orobanche cumana in resistant sunflower hybrid; assay type: in vivo
# Method: The effect of the various treatments was evaluated 35 days after sowing. The sunflower roots were cleaned by washing in water, and the presence of Orobanche nodules was determined visually and by weighing root wet mass in comparison to check plants free of Orobanche infestation. […] The nodules caused by Orobanche increased root weight, and a correlation (r=0.7) was found between visual scores and weight measurements. Thus the weighing technique could be used to corroborate visual efficacy scorings. Orobanche emergence was also scored but found to be less useful to evaluate treatment efficiency at the evaluation timing of this test.
# as §4, §5, §6
# BC4-M5M11 = test: Test B greenhouse phytotoxicity, BC4-M5M11; assay type: in vivo, sunflower; conditions: in vivo
# Method: as §3
# BC4-M5M7 = test: Test B greenhouse phytotoxicity, BC4-M5M7; assay type: in vivo, sunflower; conditions: in vivo
# Method: as §3
# BC4-M5M12 = test: Test B greenhouse phytotoxicity, BC4-M5M12; assay type: in vivo, sunflower; conditions: in vivo
# Method: as §3
# [5] = test system: homozygous progeny of the three mutant sources; assay type: in vivo, sunflower; conditions: Test B application rates, post-emergence
# Method: as §3
# [6] = postemergence 18.75 g a.i./ha, 7 DAT
# [7] = postemergence 18.75 g a.i./ha, 15 DAT
# [8] = postemergence 18.75 g a.i./ha, 30 DAT
# [9] = postemergence 37.5 g a.i./ha, 7 DAT
# [10] = postemergence 37.5 g a.i./ha, 15 DAT
# [11] = postemergence 37.5 g a.i./ha, 30 DAT
smiles,measurement,setting,value
"COc1cc(OC)nc(NC(=O)NS(=O)(=O)c2ncccc2C(=O)N(C)C)n1 [Nicosulfuron, nicosulfuron]",tolerance of homozygous resistant lines compared with heterozygous hybrids,[1],the homozygous resistant lines were more tolerant
same,"tolerance of homozygous resistant inbred lines I, J, K",[1],marginally tolerant
same,Maximum Phytotoxicity,BC3-M4M7; 30 g a.i./ha post-emergence,14%
same,Maximum Phytotoxicity,BC3-M4M12; 30 g a.i./ha post-emergence,8%
same,Phytotoxicity Rating After Treatment,BC4-M5M12 × PHA155; [6],28%
same,Phytotoxicity Rating After Treatment,BC4-M5M12 × PHA155; [7],20%
same,Phytotoxicity Rating After Treatment,BC4-M5M12 × PHA155; [8],18%
same,Phytotoxicity Rating After Treatment,BC4-M5M12 × PHA155; [9],42%
same,Phytotoxicity Rating After Treatment,BC4-M5M12 × PHA155; [10],52%
same,Phytotoxicity Rating After Treatment,BC4-M5M12 × PHA155; [11],50%
same,Maximum Phytotoxicity,[2]; 30 g a.i./ha post-emergence,54%
same,Maximum Phytotoxicity,[3]; 30 g a.i./ha post-emergence,33%
same,Maximum Phytotoxicity,H89A × M4M7; 30 g a.i./ha post-emergence,16%
same,Maximum Phytotoxicity,H89A × M4M12; 30 g a.i./ha post-emergence,15%
same,Maximum Phytotoxicity,H89A × M4M11; 30 g a.i./ha post-emergence,20%
same,Phytotoxicity Rating After Treatment,BC4-M5M7 × PHA155; [6],37%
same,Phytotoxicity Rating After Treatment,BC4-M5M7 × PHA155; [7],40%
same,Phytotoxicity Rating After Treatment,BC4-M5M7 × PHA155; [8],18%
same,Phytotoxicity Rating After Treatment,BC4-M5M7 × PHA155; [9],57%
same,Phytotoxicity Rating After Treatment,BC4-M5M7 × PHA155; [10],55%
same,Phytotoxicity Rating After Treatment,BC4-M5M7 × PHA155; [11],50%
same,Maximum Phytotoxicity,GA-M4M12 × RHA274; 30 g a.i./ha post-emergence,12%
same,Maximum Phytotoxicity,BC3-M4M11; 30 g a.i./ha post-emergence,23%
same,Maximum Phytotoxicity,GA-M4M11 × RHA274; 30 g a.i./ha post-emergence,13%
same,Maximum Phytotoxicity,GA-M4M7 × RHA274; 30 g a.i./ha post-emergence,13%
"CCc1cnc(C2=NC(C)(C(C)C)C(=O)N2)c(C(=O)O)c1 (stereo not drawn) [Imazethapyr (ammonium salt), Imazethapyr]",Maximum Phytotoxicity,M5M7,22.5%
same,Injury,[4],0%
same,Maximum Phytotoxicity,M5M12,22.5%
same,Maximum Phytotoxicity,M5M11,30%
same,relative efficacy in controlling Orobanche,"Orobanche cumana; Test E rates, metsulfuron-methyl compared with tribenuron-methyl",less efficacious in controlling Orobanche
same,Control,Orobanche cumana; pre-emergence 40 g a.i./ha,60%
same,Maximum Phytotoxicity,BC4-M5M11,25%
same,Maximum Phytotoxicity,BC4-M5M7,20%
same,Maximum Phytotoxicity,BC4-M5M12,30%
same,tolerance of the mutants,[5],marginal tolerance
"COC(=O)c1ccccc1S(=O)(=O)NC(=O)Nc1nc(OC(F)F)cc(OC(F)F)n1 [Primisulfuron-methyl, primisulfuron-methyl]",tolerance of homozygous resistant lines compared with heterozygous hybrids,[1],the homozygous resistant lines were more tolerant
same,"tolerance of homozygous resistant inbred lines I, J, K",[1],less susceptible than the standards
same,Maximum Phytotoxicity,BC3-M4M7; 30 g a.i./ha post-emergence,51%
same,Maximum Phytotoxicity,BC3-M4M12; 30 g a.i./ha post-emergence,35%
same,Maximum Phytotoxicity,[2]; 30 g a.i./ha post-emergence,100%
same,Maximum Phytotoxicity,[3]; 30 g a.i./ha post-emergence,100%
same,Maximum Phytotoxicity,H89A × M4M7; 30 g a.i./ha post-emergence,69%
same,Maximum Phytotoxicity,H89A × M4M12; 30 g a.i./ha post-emergence,66%
same,Maximum Phytotoxicity,H89A × M4M11; 30 g a.i./ha post-emergence,73%
same,Maximum Phytotoxicity,GA-M4M12 × RHA274; 30 g a.i./ha post-emergence,71%
same,Maximum Phytotoxicity,BC3-M4M11; 30 g a.i./ha post-emergence,55%
same,Maximum Phytotoxicity,GA-M4M11 × RHA274; 30 g a.i./ha post-emergence,75%
same,Maximum Phytotoxicity,GA-M4M7 × RHA274; 30 g a.i./ha post-emergence,74%
"COc1nc(C)nc(NC(=O)NS(=O)(=O)c2ccccc2OCCCl)n1 [Triasulfuron, triasulfuron]","tolerance of homozygous resistant inbred lines I, J, K",[1],as susceptible as the standards
same,Maximum Phytotoxicity,BC3-M4M7; 20 g a.i./ha post-emergence,95%
same,Maximum Phytotoxicity,BC3-M4M12; 20 g a.i./ha post-emergence,93%
same,Maximum Phytotoxicity,[2]; 20 g a.i./ha post-emergence,100%
same,Maximum Phytotoxicity,[3]; 20 g a.i./ha post-emergence,100%
same,Maximum Phytotoxicity,H89A × M4M7; 20 g a.i./ha post-emergence,98%
same,Maximum Phytotoxicity,H89A × M4M12; 20 g a.i./ha post-emergence,98%
same,Maximum Phytotoxicity,H89A × M4M11; 20 g a.i./ha post-emergence,98%
same,Maximum Phytotoxicity,GA-M4M12 × RHA274; 20 g a.i./ha post-emergence,94%
same,Maximum Phytotoxicity,BC3-M4M11; 20 g a.i./ha post-emergence,95%
same,Maximum Phytotoxicity,GA-M4M11 × RHA274; 20 g a.i./ha post-emergence,99%
same,Maximum Phytotoxicity,GA-M4M7 × RHA274; 20 g a.i./ha post-emergence,97%
